Experimental data published in EP0882734B1, “5'-Deoxy-cytidine derivatives” (F. Hoffmann-La Roche AG, priority 1997, dated 1998).
Marks after values point to notes of the source that are not given here. Blank lines part the entries; values can stand above or below the compound they belong to.

Experiments:
[1] = mouse, in vivo, 420 min
Method: In this study, fluoropyrimidines, such as 5-FU, doxifluridine [5'-deoxy-5-fluorouridine] and capecitabine [5'-deoxy-5-fluoro-N^4-(n-pentyloxycarbonyl)cytidine], were given to BALB/c nude mice bearing the human gastric cancer xenograft MKN28 in combination with either compound A or 5-EU. Then, 5-FU levels in the plasma and tumor tissues were measured at 0.25, 0.5, 2, 4 and 7 hours after each fluoropyrimidine administration (n = 3 mice), and 5-FU AUC was calculated. […]

[2] = test system: human prostate cancer xenograft PC-3; experiment: Enhancement of capecitabine antitumor activity in PC-3 xenograft; conditions: oral
Method: Compound A of Example 6 was examined for its activity to enhance the efficacy of capecitabine in BALB/c nude mice bearing the human prostate cancer xenograft PC-3. Compound A and capecitabine were orally given simultaneously or sequentially 5 successive days per week for 3 weeks starting on day 53 after the tumor inoculation when the tumor becomes palpable. On day 75, tumor volume gain and the percentage of the tumor growth inhibition were calculated.

DPD [3] = target: T1, DPD (Homo sapiens, UniProt Q12882); experiment: DPD activity in liver and tumor tissues of PC-3 xenograft mice after administration; type: in vivo, BALB/c nude mice; conditions: Tumor (PC-3), Compound A 0.5 mmol/kg, 5-EU 0.05 µmol/kg
T1 construct: The liver and tumor tissues were resected out from each group of three mice; from tissue; host or cells: liver (mouse host) and PC-3 tumour xenograft tissue from BALB/c nude mice
T1 sequence (Q12882 4-1025): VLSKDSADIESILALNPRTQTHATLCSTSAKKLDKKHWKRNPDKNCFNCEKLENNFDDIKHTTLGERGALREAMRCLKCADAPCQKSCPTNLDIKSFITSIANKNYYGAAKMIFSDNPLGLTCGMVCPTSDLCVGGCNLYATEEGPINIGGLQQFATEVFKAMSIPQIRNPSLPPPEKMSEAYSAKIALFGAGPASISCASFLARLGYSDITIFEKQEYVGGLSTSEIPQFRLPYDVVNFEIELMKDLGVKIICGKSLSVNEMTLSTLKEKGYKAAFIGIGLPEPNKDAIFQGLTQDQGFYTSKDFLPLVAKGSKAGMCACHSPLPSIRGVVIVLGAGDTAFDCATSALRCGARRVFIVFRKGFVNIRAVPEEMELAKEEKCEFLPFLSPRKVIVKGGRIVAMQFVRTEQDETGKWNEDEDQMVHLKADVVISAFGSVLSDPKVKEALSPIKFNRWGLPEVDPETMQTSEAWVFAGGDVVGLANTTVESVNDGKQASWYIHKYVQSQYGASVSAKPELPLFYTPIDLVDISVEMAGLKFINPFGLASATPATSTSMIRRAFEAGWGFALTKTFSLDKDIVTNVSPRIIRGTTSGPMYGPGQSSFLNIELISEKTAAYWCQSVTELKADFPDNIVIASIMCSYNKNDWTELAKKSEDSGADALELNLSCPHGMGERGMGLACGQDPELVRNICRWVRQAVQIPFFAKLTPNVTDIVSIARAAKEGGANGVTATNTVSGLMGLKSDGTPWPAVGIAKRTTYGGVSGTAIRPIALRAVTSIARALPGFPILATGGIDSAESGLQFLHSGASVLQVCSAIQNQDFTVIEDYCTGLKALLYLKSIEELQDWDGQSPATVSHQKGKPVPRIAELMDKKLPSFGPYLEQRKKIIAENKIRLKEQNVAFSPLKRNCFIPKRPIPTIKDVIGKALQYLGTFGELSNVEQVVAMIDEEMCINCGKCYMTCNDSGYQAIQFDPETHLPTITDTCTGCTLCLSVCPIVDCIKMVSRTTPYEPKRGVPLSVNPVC
Method: (§1) The liver and tumor tissues were resected out from each group of three mice at 2 and 8 hours after the administration of the Compound A (0.5 mmol/kg) and 5-EU ([…]). DPD activity in these tissues was then measured as described elsewhere (Naguib et al., Cancer Research 45, 5405-5412, 1985). […] Table 1. Inhibition of DPD activity by Compound A of Example 6

DPD [4] = target: T2, DPD (Mus musculus, UniProt Q8CHR6); experiment: as above; type: in vivo, BALB/c nude mice; conditions: Liver, Compound A 0.5 mmol/kg, 5-EU 0.05 µmol/kg
T2 construct: The liver and tumor tissues were resected out from each group of three mice; from tissue; host or cells: liver (mouse host) and PC-3 tumour xenograft tissue from BALB/c nude mice
T2 sequence (Q8CHR6 1-1025): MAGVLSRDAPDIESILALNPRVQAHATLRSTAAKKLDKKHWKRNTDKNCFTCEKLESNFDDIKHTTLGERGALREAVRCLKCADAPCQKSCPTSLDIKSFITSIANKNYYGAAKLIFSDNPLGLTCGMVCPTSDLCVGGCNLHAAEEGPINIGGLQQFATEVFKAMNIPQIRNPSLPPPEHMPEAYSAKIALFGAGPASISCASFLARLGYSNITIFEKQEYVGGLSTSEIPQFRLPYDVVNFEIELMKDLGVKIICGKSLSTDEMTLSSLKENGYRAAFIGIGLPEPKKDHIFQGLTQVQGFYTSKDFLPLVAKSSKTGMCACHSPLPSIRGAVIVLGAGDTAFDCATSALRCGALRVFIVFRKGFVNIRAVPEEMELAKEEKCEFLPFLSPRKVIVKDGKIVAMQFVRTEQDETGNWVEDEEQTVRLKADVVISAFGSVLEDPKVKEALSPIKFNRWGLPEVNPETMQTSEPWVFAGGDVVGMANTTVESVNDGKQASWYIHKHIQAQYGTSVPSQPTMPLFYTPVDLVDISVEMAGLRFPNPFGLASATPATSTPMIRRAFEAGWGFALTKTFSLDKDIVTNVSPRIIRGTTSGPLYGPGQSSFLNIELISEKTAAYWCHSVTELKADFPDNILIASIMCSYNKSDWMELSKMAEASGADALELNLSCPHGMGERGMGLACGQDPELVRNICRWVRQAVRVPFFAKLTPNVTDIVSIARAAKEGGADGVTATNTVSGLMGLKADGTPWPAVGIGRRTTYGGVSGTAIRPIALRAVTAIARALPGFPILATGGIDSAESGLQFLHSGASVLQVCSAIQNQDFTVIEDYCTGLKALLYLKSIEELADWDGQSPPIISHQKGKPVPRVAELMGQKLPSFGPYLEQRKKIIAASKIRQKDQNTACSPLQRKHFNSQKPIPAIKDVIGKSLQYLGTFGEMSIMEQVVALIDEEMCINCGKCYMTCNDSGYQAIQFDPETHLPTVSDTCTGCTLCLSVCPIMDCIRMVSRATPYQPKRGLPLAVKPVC
Method: as §1

[5] = Cytotoxicity of compound A itself (data not shown)
[6] = 2 hr after administration, control 31
[7] = 8 hr after administration, control 29
[8] = 2 hr after administration, control 288
[9] = 8 hr after administration, control 162
[10] = Capecitabine 1.0 mmol/kg/d + Compound A 1.0 µmol/kg/d given one hour prior to capecitabine
[11] = Capecitabine 1.0 mmol/kg/d + Compound A 1.0 µmol/kg/d given simultaneously

- 5-FU AUC Tumor [1]: 30 nmolohr/mL
Structure (SMILES): CCCCCOC(=O)Nc1nc(=O)n([C@@H]2O[C@H](C)[C@@H](O)[C@H]2O)cc1F [Capecitabine, 5'-deoxy-5-fluoro-N^4-(n-pentyloxycarbonyl)cytidine]
- Tumor growth inhibition (%) Day 75 ([2]; Capecitabine 1.0 mmol/kg/d alone, 5 successive days per week for 3 weeks): 23%
- Tumor volume change (mm^3) Day 53-75 ([2]; Capecitabine 1.0 mmol/kg/d alone, 5 successive days per week for 3 weeks, control 981): 757 mm^3
- Body weight change (g) Day 75 ([2]; Capecitabine 1.0 mmol/kg/d alone, control -3.6): -3.4 g

- DPD activities (DPD [3]; [6]): 9 pmol/mg protein/min
- DPD activities (DPD [3]; [7]): 9 pmol/mg protein/min
- DPD activities (DPD [4]; [8]): 177 pmol/mg protein/min
- DPD activities (DPD [4]; [9]): 326 pmol/mg protein/min
Structure (SMILES): C#Cc1cn([C@@H]2O[C@H](C)[C@@H](O)[C@H]2O)c(=O)nc1NC(=O)OCCCCC [Compound A, 5'-deoxy-5-ethynyl-N^4-(n-pentyloxycarbonyl)cytidine]
- Body weight change (g) Day 75 [2, 10]: -0.3 g
- Tumor growth inhibition (%) Day 75 [2, 10]: 80%
- Tumor volume change (mm^3) Day 53-75 ([2]; Capecitabine 1.0 mmol/kg/d + Compound A 1.0 µmol/kg/d given one hour prior to capecitabine, p < 0.05 vs control): 201* mm^3
- Body weight change (g) Day 75 [2, 11]: -1.8 g
- Tumor growth inhibition (%) Day 75 [2, 11]: 67%
- Tumor volume change (mm^3) Day 53-75 ([2]; Capecitabine 1.0 mmol/kg/d + Compound A 1.0 µmol/kg/d given simultaneously, p < 0.05 vs control): 323* mm^3
- cytotoxicity [5]: not cytotoxic

- 5-FU AUC Plasma [1]: 2.6 nmolohr/mL
- 5-FU AUC Tumor [1]: 8.0 nmolohr/mL
Structure (SMILES): C[C@H]1O[C@@H](n2cc(F)c(=O)[nH]c2=O)[C@H](O)[C@@H]1O [Doxifluridine, 5'-deoxy-5-fluorouridine]

- DPD activities (DPD [3]; [6]): 17 pmol/mg protein/min
- DPD activities (DPD [3]; [7]): 13 pmol/mg protein/min
- DPD activities (DPD [4]; [8]): 46 pmol/mg protein/min
- DPD activities (DPD [4]; [9]): 83 pmol/mg protein/min
Structure (SMILES): C#Cc1c[nH]c(=O)[nH]c1=O [Example 5-EU, 5-ethynyluracil]
